In PubChem BioAssay AID493250 (Broad Institute, 2011):
Active and inactive are the calls of the source.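 How the source made its calls: active means signal decrease with fitted half-maximal dose at or below ten times the highest valid tested dose; inconclusive means poor fit, or flat fit at 30 to 70% inhibition; inactive means the rest.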

Molecular target: Zinc finger protein mex-5 (Caenorhabditis elegans) (UniProt Q9XUB2)
Assay: MEX-5 zinc finger-RNA interaction blockers – biochemical, fluorescence polarization, C. elegans, cherry-picked, round 3, dose response (AID 493250)
Settings: purified MEX-5-MBP, FITC-TCR2 RNA fluorescence polarization; for activity change, negative = inhibition: at 10 µM (top of the series)

Sequence of Zinc finger protein mex-5 (Caenorhabditis elegans) (Q9XUB2 whole entry, looked up): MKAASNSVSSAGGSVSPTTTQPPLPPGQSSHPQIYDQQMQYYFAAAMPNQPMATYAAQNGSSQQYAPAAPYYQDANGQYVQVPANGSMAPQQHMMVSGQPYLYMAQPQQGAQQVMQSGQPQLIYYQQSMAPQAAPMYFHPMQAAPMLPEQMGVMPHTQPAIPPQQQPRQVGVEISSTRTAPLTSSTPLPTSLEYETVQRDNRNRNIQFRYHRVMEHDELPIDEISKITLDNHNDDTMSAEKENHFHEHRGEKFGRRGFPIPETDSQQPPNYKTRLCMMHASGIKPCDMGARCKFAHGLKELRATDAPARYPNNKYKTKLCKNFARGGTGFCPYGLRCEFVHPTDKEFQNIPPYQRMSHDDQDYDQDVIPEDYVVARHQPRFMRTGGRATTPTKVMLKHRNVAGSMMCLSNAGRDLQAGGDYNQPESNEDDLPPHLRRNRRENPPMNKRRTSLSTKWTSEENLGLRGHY

Row | Structure (SMILES) | activity change, negative = inhibition | AC50
1 | COC(=O)c1ccc(-c2ccc(C(c3c(C)[nH][nH]c3=O)c3c(C)[nH][nH]c3=O)o2)cc1 | inactive | 
2 | COc1ccc(OC)c(NC(=O)c2sc3nc(Cc4ccccc4)cc(C(F)(F)F)c3c2N)c1 |  | 6.44 µM
3 | COCCN1CCC(CNCc2cn(-c3cc(C)ccc3C)nc2-c2ccccc2)C1 (centres undefined) | inactive | 
4 | Cn1nc(C(=O)NNC(=O)c2ccc(Cl)cc2)ccc1=O | inactive | 
5 | CCCc1nc2ccccc2c(=O)n1/N=C/c1ccc(O)c(O)c1 | inactive | 
6 | O=c1[nH]nc(CNc2ccc(OC(F)(F)F)cc2)c2ccccc12 | inactive | 
7 | COc1ccc2nc3ccccc3nc2c1N | inactive | 
8 | CC(=O)c1cc(NC(=O)c2ccc(C)cc2)c(=O)oc1C | inactive | 
9 | Nc1ccc(Cc2ccc(N)c(C(=O)O)c2)cc1C(=O)O | inactive | 
10 | C#CCOCCOCCOCCNc1nc(N2CCN(C(=O)[C@H](CCCCN)n3cc(C(N)CO)nn3)CC2)nc(N2CCN(C(=O)[C@H](CCC(=O)O)n3cc(C(N)CC(C)C)nn3)CC2)n1 (some centres undefined) | inactive | 
11 | CCN(CC(=O)Nc1ccc(NC(C)=O)cc1)Cc1c(O)ccc2cc(Br)ccc12 | inactive | 
12 | Cc1ccc(C(=O)N/C(=C\c2ccc(-c3ccccc3[N+](=O)[O-])o2)C(=O)NCCN(C)C)cc1 | inactive | 
13 | CC1=NN(C(N)=S)C(=O)C1N=Nc1cccc(Cl)c1C (centres undefined) | inactive | 
14 | COc1ccc2c(c1)NC(c1ccc(N(C)C)cc1)c1cccn1-2 (centres undefined) | inactive | 
15 | COc1ccccc1N1C(=O)S/C(=C\c2cccs2)C1=O | inactive | 
16 | O=C(NNC(=O)c1ccc([N+](=O)[O-])o1)c1ccccc1 | inactive | 
17 | COc1ccc(/C(O)=C/c2nc3ccccc3n(-c3ccccc3)c2=O)cc1 |  | 3.25 µM
18 | Cc1ccc(C(=O)/C=C/c2ccccc2[N+](=O)[O-])cc1 | inactive | 
19 | Oc1cccc(NC(=S)N=Nc2c(O)[nH]c3ccc(Br)cc23)c1 | inactive | 
20 | CCCOc1cc(N(CC)CC)ccc1/C=C(/C#N)c1nc2ccc(C)cc2[nH]1 |  | 6.33 µM
21 | Cc1c(CN2CCCC(C)C2)c(O)n(CCO)c(=O)c1C#N (centres undefined) | inactive | 
22 | O=C(O)c1ccccc1N=Nc1c(O)[nH]c2ccc([N+](=O)[O-])cc12 | inactive | 
23 | CCCCCOP(=O)(OCCCCC)C1(NS(=O)(=O)c2ccccc2)C=CC(=O)c2ccccc21 (centres undefined) | inactive | 
24 | Cc1cccnc1Nc1nc(-c2ccc(O)cc2O)cs1 | inactive | 

Row | Structure (SMILES) | activity change, negative = inhibition | AC50
25 | Cc1cc(C)c2ccc(C(=O)O)nc2c1O | inactive | 
26 | Cc1c(Br)c(=O)oc2c(Br)c(O)c(O)cc12 | inactive | 
27 | CSc1ccccc1N=Cc1nc(-c2ccccc2)oc1O | inactive | 
28 | CN1CCc2c(sc(NC(=O)c3ccc(S(=O)(=O)N4CCCC4)cc3)c2C(N)=O)C1 | inactive | 
29 | COc1ccc(-n2c(C)nc3cc(C(=O)O)ccc32)cc1 | inactive | 
30 | COc1ccc2cc3c(N)c(C(=O)NCc4ccco4)sc3nc2c1 | inactive | 
31 | CNC(=O)c1cc2ccc(OC)cc2oc1=O |  | > 10 µM (inactive)
32 | CCOc1cc(/C=C2\CCCc3c2nc2ccccc2c3C(=O)O)ccc1OC |  | 0.906 µM
33 | C=CCn1c(Cc2nc3ccc(Cl)cc3[nH]2)n[nH]c1=S | inactive | 
34 | N=C1C(c2nc3ccccc3[nH]2)=C(O)CN1c1ccccc1 | inactive | 
35 | N#C/C(C(N)=O)=C1/CCc2ccccc2N1 | inactive | 
36 | O=C(Nc1nccs1)c1ccc(-c2ccc(Cl)cc2)o1 | inactive | 
37 | NC(=O)c1cccc2cc3ccccc3cc12 | inactive | 
38 | Cc1cc(=O)oc(C)c1C(=O)Nc1c(C)n(C)n(-c2ccccc2)c1=O | inactive | 
39 | COc1ccc(-c2csc(Nc3ccc(S(N)(=O)=O)cc3)n2)cc1OC | inactive | 
40 | CCOc1ccccc1C1NC(=O)NC(C)=C1C(=O)OCc1ccccc1 (centres undefined) | inactive | 
41 | O=C1N=c2ccccc2=C1c1sc(=S)n(NC(=O)c2cccc(O)c2)c1O | inactive | 
42 | Oc1ccc(/C=N/N2CCOCC2)c(O)c1O | inactive | 
43 | COC(=O)c1cc2c(-c3ccccc3)c(C)c3ccccn3c-2c1C(=O)OC | inactive | 
44 | Cc1ccc2c(c1Cl)NC(C(=O)O)C1CC(Sc3ccccc3[N+](=O)[O-])C(Cl)C21 (centres undefined) | inactive | 
45 | CC[N+](C)(CC)CCCOC(=O)C(O)(c1ccccc1)C1CCCCC1 (centres undefined) | inactive | 
46 | Cc1ccc(-c2nc(C=Nc3cccc(C)c3)c(O)o2)cc1 | inactive | 
47 | CCCC1C2CN(C(C)C)CC=C2C(C#N)=C(N)C1(C#N)C#N (centres undefined) |  | 4.99 µM
48 | O=c1[nH]cnc2c1C(c1ccccc1[N+](=O)[O-])c1c(nc[nH]c1=O)O2 | inactive | 

Row | Structure (SMILES) | activity change, negative = inhibition | AC50
49 | Cc1ccc(S(=O)(=O)c2cc3c(=O)n4cccc(C)c4nc3n(C3CCCCC3)c2=N)cc1 | inactive | 
50 | COc1ccc(OC)c(Nc2nc(-c3ccc(O)c(O)c3)cs2)c1 | inactive | 
51 | Cc1ccc(C)c(NC(=O)CCC(=O)NNC(=S)Nc2ccccc2)c1 | inactive | 
52 | Cn1ncc2c(NNC(=O)c3ccccc3Cl)ncnc21 | inactive | 
53 | COc1ccc(N=C2S/C(=C\c3ccc(N4CCOCC4)o3)C(=O)N2CCc2c[nH]c3ccccc23)cc1 | inactive | 
54 | Cc1ccc(NC(=O)CCC(=O)NNC(=S)Nc2ccc(F)cc2)c(C)c1 | inactive | 
55 | COc1ccc(NS(=O)(=O)c2cccc(C(=O)NNC(=O)c3cc(S(N)(=O)=O)ccc3OC)c2)cc1 |  | > 10 µM (inactive)
56 | CCOC(=O)c1cnc(SCC(=O)NNC(=O)c2ccco2)nc1N | inactive | 
57 | O=C1OC(C(=O)O)Cc2ccccc21 (centres undefined) | inactive | 
58 | COc1ccccc1N=Nc1c(C)[nH][nH]c1=O | inactive | 
59 | N#CC1=C(N)Oc2c(O)cc3ccccc3c2C1c1ccsc1 (centres undefined) | inactive | 
60 | Cc1ccc2cc(C#N)c(N3CCCN(C(=O)C4CCCO4)CC3)nc2c1C (centres undefined) | inactive | 
61 | O=C(O)c1cccc(NC(=S)N/N=C/c2c[nH]c3ccccc23)c1 | inactive | 
62 | CSc1ccc(/C=C/C(=O)c2ccc(NC(C)=O)cc2)cc1 | inactive | 
63 | Cc1cccc(C(=O)NNC(=O)c2ccco2)c1O | inactive | 
64 | Cc1ccc(N/N=C(\C#N)C(=O)c2ccsc2)cc1 | inactive | 
65 | CCN(CC)c1ccc(N=Cc2c(O)n(-c3ccccc3C)c(=O)[nH]c2=O)cc1 | inactive | 
66 | CCOc1ccc(/C=N/n2c(C)nc3ccccc3c2=O)cc1 | inactive | 
67 | O=C(NNC(=O)c1ccco1)c1csc(N2CCOCC2)n1 | inactive | 
68 | O=C(N/N=C/c1cccnc1)c1ccc(O)cc1 | inactive | 
69 | C=CCOc1ccc(C(c2c(C(=O)O)[nH]c3ccccc23)c2c(C(=O)O)[nH]c3ccccc23)cc1 | inactive | 
70 | CCOc1ccc(N2C(=O)C(Cl)=C(Nc3ccccc3O)C2=O)cc1 | inactive | 
71 | O=C(O)CCC(=O)NNc1ncnc2ccccc12 | inactive | 
72 | Cc1cc2c(C)nc(N/N=C/c3ccc([N+](=O)[O-])cc3)nc2o1 |  | 6.83 µM

Row | Structure (SMILES) | activity change, negative = inhibition | AC50
73 | Cc1nc2c(N=Nc3ccccc3F)c(N)nn2c(N)c1C#N | inactive | 
74 | CC(C)(C)N(CC#CCC(O)(c1ccccc1)c1ccccc1)CCO | inactive | 
75 | O=S(=O)(O)c1nc2ccccc2n1Cc1ccc(Cl)cc1Cl | inactive | 
76 | COc1ccc(/C=N/NC(=S)Nc2cccc(C(=O)O)c2)cc1 | inactive | 
77 | O=[N+]([O-])c1cc(S(=O)(=O)c2ccc(O)c([N+](=O)[O-])c2)ccc1O | inactive | 
78 | Cc1cccc(C)c1NC(=O)/C(C#N)=C/c1cccs1 | inactive | 
79 | CC1(C)NC(=O)NC2(C)NC(=O)NC(C)(C)C12 (centres undefined) | inactive | 
80 | Oc1c(Cl)cc(Cl)c2c1NCCC2 | inactive | 
81 | Cc1c(O)ccc(-c2[nH]ncc2-c2nc3ccccc3s2)c1O | inactive | 
82 | CN(C)C(=O)Oc1ccc2c(c1)O/C(=C\c1ccccc1)C2=O | inactive | 
83 | CC1=C(C(=O)OCc2ccccc2)C(c2ccc(N(C)C)cc2)NC(=O)N1 (centres undefined) | inactive | 
84 | O=C1N=c2ccccc2=C1c1sc(=S)n(NC(=O)c2ccccc2)c1O | inactive | 
85 | Cc1csc(NC(=O)c2ccc(-c3ccc(Cl)cc3Cl)o2)n1 | inactive | 
86 | COCCNc1nnc(SCC(=O)NNC(=O)c2ccc([N+](=O)[O-])cc2)s1 | inactive | 
87 | CC(=O)CSc1ncnc2nc[nH]c12 | inactive | 
88 | O=C(NNC(=O)c1ccc(O)c(Cl)c1)c1cccc(S(=O)(=O)N2CCOCC2)c1 | inactive | 
89 | CCOC(=O)C1Cc2ccccc2C(=O)O1 (centres undefined) | inactive | 
90 | Cc1cccc(N2C(=O)NC(=O)/C(=C/c3cc4c(cc3[N+](=O)[O-])OCO4)C2=O)c1 |  | 9.86 µM
91 | COc1ccc(CC(=O)NNc2ncnc3c2cnn3C)cc1 | inactive | 
92 | O=C(O)c1ccc(NC2=C(Cl)C(=O)c3ccccc3C2=O)cc1 | inactive | 
93 | Cc1cccc(/C=N/NC(=O)Cn2nnnc2N)n1 | inactive | 
94 | CN1CN(C)c2cccc3cccc1c23 | inactive | 
